Data set [1] deals with Mitogen-activated protein kinase 9 (Mus musculus) (UniProt Q9WTU6). Briefly: Binding affinity to JNK2 in protein lysate of LPS-stimulated mouse J774A.1 cells assessed as protein degradation in presence of pronase at 10 to 40 uM measured after overnight incubation by immunoblotting based drug affinity responsive target stability (DARTS) assay. Type of data set: subcellular. To be noted: J774.1, dose 10-40 µM.

Data set [2] can be described thus: Half life in Sprague-Dawley rat at 10 mg/kg, po measured upto 24 hrs by UPLC-MS/MS analysis. It is filed as ADME, organism-based. To be noted: in vivo.
Data set [3] in a line: AUC (0 to t) in Sprague-Dawley rat at 10 mg/kg, iv measured upto 24 hrs by UPLC-MS/MS analysis. Type of data set: ADME, organism-based. Also noted: dose 10 mg/kg, time < 24 hrs, route iv. To be noted: in vivo.
The target of data set [4] is Mitogen-activated protein kinase 10 (Mus musculus) (UniProt Q61831). Briefly: Binding affinity to JNK3 in protein lysate of LPS-stimulated mouse J774A.1 cells assessed as protein degradation in presence of pronase at 10 to 40 uM measured after overnight incubation by immunoblotting based drug affinity responsive target stability (DARTS) assay. Type of data set: subcellular. As to conditions: J774.1, dose 10-40 µM.

Data set [5] in a line: Subacute toxicity in ICR mouse assessed as pathological change in kidney at 500 to 100 mg/kg, IG measured for 10 days by hematoxylin and eosin dye based light microscopy. It is filed as organism-based. To be noted: in vivo, po, 240 h, dose 500-100 mg/kg, time 10 day.
Data set [6] deals with Mitogen-activated protein kinase 9 (Homo sapiens, UniProt P45984). Briefly: Inhibition of JNK2 (unknown origin) assessed as inhibition rate at 10 uM by SPR analysis relative to control.
The test system of data set [7] is Mus musculus. As to the kind of experiment: Antiinflammatory activity against LPS-induced acute lung injury C57 mouse model assessed as increase in IkappaBalpha level in lung tissue at 40 mg/kg, po thrice at 12 hrs interval followed 30 mins treated with LPS by Western blot analysis. It is filed as functional, organism-based. As to conditions: time 36.5 hrs. (In general: Immunoblotting shows a protein as a band on a membrane.)

The subject of data set [8] is J774.A1. As to the kind of experiment: Antiinflammatory activity against mouse J774A.1 cells assessed as inhibition of LPS-stimulated IL6 mRNA expression pretreated for 2 hrs followed by stimulated with LPS by RT-qPCR analysis. As to conditions: dose 2.5-10 µM. It is filed as functional, cell-based. (In qPCR the cycle at which signal appears reflects the starting amount.)

Data set [9] relates to Mus musculus. Briefly: Antiinflammatory activity against LPS-induced acute lung injury C57 mouse model assessed as decrease in LPS-induced IL-6 level in alveolar lavage fluid at 20 mg/kg, po thrice at 12 hrs interval. To be noted: Bronchoalveolar lavage. Type of data set: functional, organism-based.
In data set [10] the test system is Mus musculus. Briefly: Antiinflammatory activity against LPS-induced acute lung injury C57 mouse model assessed as reduction in LPS-induced p-p65 level in lung tissue at 40 mg/kg, po thrice at 12 hrs interval followed 30 mins treated with LPS by Western blot analysis. To be noted: time 36.5 hrs. It is filed as functional, organism-based.
The test system of data set [11] is Mus musculus. Briefly: Antiinflammatory activity against LPS-induced acute lung injury C57 mouse model assessed as reduction in LPS-induced p-JNK level in lung tissue at 40 mg/kg, po thrice at 12 hrs interval followed 30 mins treated with LPS by Western blot analysis. As to conditions: time 36.5 hrs. It is filed as functional, organism-based.
Data set [12] has as its target T1, Mitogen-activated protein kinase kinase kinase 7 (Mus musculus) (UniProt Q62073).
T1 sequence (whole entry): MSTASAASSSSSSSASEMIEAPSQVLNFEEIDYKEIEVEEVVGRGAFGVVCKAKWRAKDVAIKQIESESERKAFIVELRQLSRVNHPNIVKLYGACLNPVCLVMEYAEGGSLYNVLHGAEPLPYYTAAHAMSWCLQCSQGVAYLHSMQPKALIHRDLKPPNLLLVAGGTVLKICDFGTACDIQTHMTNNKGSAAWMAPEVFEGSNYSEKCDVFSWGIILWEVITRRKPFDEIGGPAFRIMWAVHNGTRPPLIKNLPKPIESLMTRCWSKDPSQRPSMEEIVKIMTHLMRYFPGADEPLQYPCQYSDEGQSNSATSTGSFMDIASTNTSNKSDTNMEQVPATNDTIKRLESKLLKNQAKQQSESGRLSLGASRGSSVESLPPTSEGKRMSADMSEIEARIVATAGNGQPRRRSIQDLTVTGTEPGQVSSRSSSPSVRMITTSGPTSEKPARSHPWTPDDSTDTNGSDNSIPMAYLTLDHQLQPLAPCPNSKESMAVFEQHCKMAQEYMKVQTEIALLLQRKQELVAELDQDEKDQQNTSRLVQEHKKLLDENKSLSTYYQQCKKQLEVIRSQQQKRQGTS
Briefly: Inhibition of TAK1 phosphorylation in mouse J774A.1 cells pretreated at 10 uM for 2 hrs followed by induced with LPS for 30 mins by Western blot analysis. As to conditions: J774.1, time 2.5 hrs. Type of data set: cell-based.

For data set [13], the system named is Mus musculus. As to the kind of experiment: Antiinflammatory activity against LPS-induced acute lung injury C57 mouse model assessed as decrease in LPS-induced protein concentration in broncho alveolar lavage fluid at 20 mg/kg, po thrice at 12 hrs interval. Type of data set: functional, organism-based. To be noted: Bronchoalveolar lavage.
Data set [14] deals with THP-1. As to the kind of experiment: Antiinflammatory activity against human THP-1 cells assessed as inhibition of LPS-stimulated TNFalpha release measured after 30 mins by ELISA. To be noted: 0.5 h. It is filed as functional. (In an ELISA, binding on a coated surface is turned into a signal by an enzyme label.)
Data set [15] has as its system Mus musculus. Briefly: Antiinflammatory activity against LPS-induced acute lung injury C57 mouse model assessed as reduction in LPS-induced neutrophil numbers in alveolar lavage fluid at 20 to 40 mg/kg, po thrice at 12 hrs interval followed 30 mins treated with LPS. Type of data set: functional, organism-based. To be noted: dose 20-40 mg/kg, time 36.5 hrs.
In data set [16] the test system is J774.A1. Briefly: Antiinflammatory activity against mouse J774A.1 cells assessed as inhibition of LPS-stimulated IL6 release measured at 10 uM after 30 mins by ELISA relative to control. As to conditions: J774.A1, 0.5 h. Type of data set: functional.
Data set [17] relates to J774.A1. Briefly: Antiinflammatory activity against mouse J774A.1 cells assessed as inhibition of LPS-stimulated TNFalpha release measured after 30 mins by ELISA. Type of data set: functional, cell-based. As to conditions: J774.A1, 0.5 h.
In data set [18] the test system is THP-1. As to the kind of experiment: Antiinflammatory activity against human THP-1 cells assessed as inhibition of LPS-stimulated IL6 mRNA expression pretreated for 2 hrs followed by stimulated with LPS by RT-qPCR analysis. It is filed as functional, cell-based. To be noted: dose 2.5-10 µM.
A short description of data set [19]: Cmax in Sprague-Dawley rat at 10 mg/kg, po measured upto 24 hrs by UPLC-MS/MS analysis. It is filed as ADME, organism-based. Also noted: time < 24 hrs, dose 10 mg/kg, route po. To be noted: in vivo.
The target of data set [20] is Mitogen-activated protein kinase 8 (Mus musculus) (UniProt Q91Y86). Briefly: Binding affinity to JNK1 in protein lysate of LPS-stimulated mouse J774A.1 cells assessed as protein degradation in presence of pronase at 10 to 40 uM measured after overnight incubation by immunoblotting based drug affinity responsive target stability (DARTS) assay. It is filed as subcellular. To be noted: J774.1, dose 10-40 µM.

Active and inactive are the calls of the source. The rule behind the calls is not given here.

Chain of Mitogen-activated protein kinase 9 (P45984 whole entry, looked up): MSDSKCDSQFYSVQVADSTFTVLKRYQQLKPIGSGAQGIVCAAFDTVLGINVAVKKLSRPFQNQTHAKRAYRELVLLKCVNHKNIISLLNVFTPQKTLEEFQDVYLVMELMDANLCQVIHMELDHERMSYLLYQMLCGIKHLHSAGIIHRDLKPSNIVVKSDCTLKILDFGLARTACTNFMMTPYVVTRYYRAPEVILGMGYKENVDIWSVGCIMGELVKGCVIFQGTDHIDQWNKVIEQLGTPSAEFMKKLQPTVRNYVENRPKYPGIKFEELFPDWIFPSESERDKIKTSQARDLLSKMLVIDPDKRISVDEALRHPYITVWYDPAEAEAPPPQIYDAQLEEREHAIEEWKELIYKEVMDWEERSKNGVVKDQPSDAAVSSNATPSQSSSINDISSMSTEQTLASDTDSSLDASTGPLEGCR
Chain of Mitogen-activated protein kinase 8 (Mus musculus) (Q91Y86 whole entry): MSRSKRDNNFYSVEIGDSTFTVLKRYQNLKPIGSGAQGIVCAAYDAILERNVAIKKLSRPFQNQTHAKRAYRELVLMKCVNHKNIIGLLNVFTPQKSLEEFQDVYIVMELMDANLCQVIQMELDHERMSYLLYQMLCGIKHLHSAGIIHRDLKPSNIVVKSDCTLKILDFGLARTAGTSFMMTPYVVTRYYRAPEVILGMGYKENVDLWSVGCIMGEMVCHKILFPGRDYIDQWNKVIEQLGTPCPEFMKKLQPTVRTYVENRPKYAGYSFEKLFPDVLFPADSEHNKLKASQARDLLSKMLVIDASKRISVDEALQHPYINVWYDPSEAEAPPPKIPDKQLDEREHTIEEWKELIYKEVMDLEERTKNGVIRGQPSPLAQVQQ
Chain of Mitogen-activated protein kinase 9 (Mus musculus) (Q9WTU6 whole entry): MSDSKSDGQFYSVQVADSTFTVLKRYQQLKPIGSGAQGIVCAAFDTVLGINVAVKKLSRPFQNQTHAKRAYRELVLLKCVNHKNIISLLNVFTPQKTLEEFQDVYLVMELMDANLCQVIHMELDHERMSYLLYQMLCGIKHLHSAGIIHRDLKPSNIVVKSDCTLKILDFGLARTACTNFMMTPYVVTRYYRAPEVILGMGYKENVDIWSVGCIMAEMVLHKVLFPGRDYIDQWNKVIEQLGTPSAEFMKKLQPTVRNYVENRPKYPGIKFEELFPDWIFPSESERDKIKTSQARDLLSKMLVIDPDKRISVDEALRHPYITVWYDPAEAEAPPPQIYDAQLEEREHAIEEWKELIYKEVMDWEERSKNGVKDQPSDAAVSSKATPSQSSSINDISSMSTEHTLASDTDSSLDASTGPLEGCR
Chain of Mitogen-activated protein kinase 10 (Mus musculus) (Q61831 whole entry): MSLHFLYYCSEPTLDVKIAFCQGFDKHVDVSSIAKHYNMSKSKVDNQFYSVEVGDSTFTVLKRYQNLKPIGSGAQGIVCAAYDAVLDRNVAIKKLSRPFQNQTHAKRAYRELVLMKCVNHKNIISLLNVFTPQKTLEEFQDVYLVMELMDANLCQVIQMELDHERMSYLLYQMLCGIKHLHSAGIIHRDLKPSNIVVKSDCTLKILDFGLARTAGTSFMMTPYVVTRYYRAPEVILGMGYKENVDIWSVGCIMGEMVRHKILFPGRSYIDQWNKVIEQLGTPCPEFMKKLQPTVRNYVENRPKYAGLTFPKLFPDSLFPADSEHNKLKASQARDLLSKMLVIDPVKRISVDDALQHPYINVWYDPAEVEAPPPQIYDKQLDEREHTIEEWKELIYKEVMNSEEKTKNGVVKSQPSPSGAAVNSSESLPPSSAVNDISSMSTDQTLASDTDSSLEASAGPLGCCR

For the compound `COc1cc2nccc(Oc3ccc(NC(=O)c4nn(-c5ccc(C)cc5)c(=O)cc4C)cc3)c2cc1OC`, the result (in data set [1]; in [4]; in the data set with Mus musculus [13]; in data set [20]) was inactive. Further, the half-life (commonly how long it takes for the measured level to halve) in data set [2] was 1.16 h. For the same compound, the AUCt in data set [3] was 2995.673 ng·h/mL. Also, the Activity entry in data set [5] is “Non-Toxic”; in the data set on J774.A1 [8] it was “Dose-Dependent Effect”; with THP-1 [18] it was “Dose-Dependent Effect”. Also, in data set [6], the inhibition (commonly the share of the control response that was lost under treatment) came out at 64.8%. In addition, the outcome in the data set with Mus musculus [7], with Mus musculus [9], in the data set on Mus musculus [10], in the data set on Mus musculus [11] and in the data set on Mus musculus [15] was Active. The inhibition entry in [12] is “Active”. Moreover, the half-maximal inhibitory concentration (IC50) (commonly the concentration that inhibits the measured activity by half) was found to be 1.76 µM with THP-1 [14] and 5.3 µM in the data set with J774.A1 [17]. For the same compound, in the data set with J774.A1 [16], the inhibition at 10 µM was found to be 71.5%. Also, the concentration in data set [19] peaked (Cmax) at 1870 ng/mL.

These data come from ChEMBL document CHEMBL5321290, “Discovery of the Diphenyl 6-Oxo-1,6-dihydropyridazine-3-carboxylate/carboxamide Analogue J27 for the Treatment of Acute Lung Injury and Sepsis by Targeting JNK2 and Inhibiting the JNK2-NF-κB/MAPK Pathway” (J Med Chem, 2023).
